Laboratory results taken from patent US4356183A, “Antihypertensive 4-thiazolidinecarboxylic acids (pyridyl derivatives)” (Santen Pharmaceutical Co., Ltd., priority 1978, dated 1982).
Like-named read-outs stand apart in the source and are kept apart here. One block for each compound: values may come before it.

What was measured:
[1] = target: T1, angiotensin I-converting enzyme (Oryctolagus cuniculus, UniProt P12822); test: Inhibition of angiotensin I-converting enzyme by spectrophotometry (HHL substrate); assay type: biochemical; conditions: enzyme from rabbit lung; 5 mM HHL; pH 8.3; 37° C., 30 min
T1 construct: angiotensin I-converting enzyme extracted from rabbit lung; from tissue; host or cells: rabbit lung
T1 sequence (P12822 34-1310): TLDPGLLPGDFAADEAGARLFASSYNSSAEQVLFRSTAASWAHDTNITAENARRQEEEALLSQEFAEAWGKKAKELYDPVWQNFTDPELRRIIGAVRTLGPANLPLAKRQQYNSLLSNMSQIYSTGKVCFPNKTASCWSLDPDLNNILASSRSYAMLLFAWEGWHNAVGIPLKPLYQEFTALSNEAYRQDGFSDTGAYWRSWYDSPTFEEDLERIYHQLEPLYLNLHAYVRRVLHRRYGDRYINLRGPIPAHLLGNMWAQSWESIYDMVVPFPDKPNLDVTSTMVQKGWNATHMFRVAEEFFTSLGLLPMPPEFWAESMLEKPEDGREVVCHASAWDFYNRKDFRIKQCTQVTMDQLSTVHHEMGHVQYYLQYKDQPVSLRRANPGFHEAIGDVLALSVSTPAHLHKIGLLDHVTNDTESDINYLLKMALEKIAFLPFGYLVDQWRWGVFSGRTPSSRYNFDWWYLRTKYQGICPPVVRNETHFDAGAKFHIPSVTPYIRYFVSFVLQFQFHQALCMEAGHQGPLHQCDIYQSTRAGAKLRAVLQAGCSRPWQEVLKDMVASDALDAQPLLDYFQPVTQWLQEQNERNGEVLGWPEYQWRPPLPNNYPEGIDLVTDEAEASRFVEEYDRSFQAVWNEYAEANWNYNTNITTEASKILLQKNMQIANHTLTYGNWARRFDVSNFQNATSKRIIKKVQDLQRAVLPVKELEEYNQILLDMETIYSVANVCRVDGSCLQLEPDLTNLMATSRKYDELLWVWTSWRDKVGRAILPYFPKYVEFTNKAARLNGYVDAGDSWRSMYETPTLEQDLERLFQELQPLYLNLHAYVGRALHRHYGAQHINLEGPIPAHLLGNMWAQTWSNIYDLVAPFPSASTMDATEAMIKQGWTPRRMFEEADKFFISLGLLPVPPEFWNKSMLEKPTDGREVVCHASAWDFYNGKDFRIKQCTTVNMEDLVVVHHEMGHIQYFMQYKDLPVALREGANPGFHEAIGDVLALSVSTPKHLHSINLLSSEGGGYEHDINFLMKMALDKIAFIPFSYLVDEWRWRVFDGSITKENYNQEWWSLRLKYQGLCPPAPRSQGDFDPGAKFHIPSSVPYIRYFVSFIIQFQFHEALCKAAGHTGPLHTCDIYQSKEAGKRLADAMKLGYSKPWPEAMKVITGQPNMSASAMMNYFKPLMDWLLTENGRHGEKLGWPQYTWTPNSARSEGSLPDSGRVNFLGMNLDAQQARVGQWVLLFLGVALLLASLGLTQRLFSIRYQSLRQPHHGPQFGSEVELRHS
Method: That is, the absorbance of hippuric acid was measured, which is liberated by incubating hippuryl-L-histidyl-L-leucine (HHL) as substrate in the presence of angiotensin I-converting enzyme extracted from rabbit lung.
(§1) Measurement of inhibitory activity of angiotensin I-converting enzyme
The reaction mixture is as follows:
100 mM phosphate buffer (pH 8.3)
10^-3 ~10^-9 M enzyme inhibitor
0.25 ml of the above mixture was incubated at 37° C. for 30 minutes and the reaction was stopped by adding 0.25 ml of 1 N hydrochloric acid. To this solution, 1.5 ml of ethyl acetate was added in order to extract hippuric acid. 1.0 ml of ethyl acetate layer was collected and evaporated to dryness, and the residue obtained was dissolved in 1.0 ml of water.
The inhibitory activity of angiotensin I-converting enzyme was calculated by the following formula: [formula]

[2] = tested on: contractile response of isolated guinea pig ileum to angiotensin I; test: Inhibition of contractile response of isolated guinea pig ileum to angiotensin I; assay type: cell-based; conditions: angiotensin I 0.1 μg/ml, compound added 5 min before, 30° C., read-out: Angiotensin I IC50 (50% inhibition of angiotensin I activity inducing the contraction of guinea pig ileum)
Description: As the method of measurement of angiotensin I-converting enzyme activity, bioassay for the contractile response of isolated smooth muscle or the pressor response of normal animals and biochemical assay for the enzyme isolated from lung or other organs of animals are known. The former is found more advantageous than the latter for the examination of the convertion of angiotensin I to angiotensin II in vivo.
In the present study, therefore, we adopted the bioassay for contractile response of isolated guinea pig ileum to angiotensin I.
as §1
(§2) Isolated guinea pig ileum was suspended in the organ bath containing 20 ml of Tyrode's solution of 30° C. gassed with 95% O2 +5% CO2. The contraction induced by the addition of angiotensin I (0.1 μg/ml) at intervals of 10 minutes was recorded on a recticorder (Nihon Koden) for 90 seconds using FD pick up (ST-1T-H, Nihon Koden).
(§3) The test compounds were added to the bath 5 minutes before the addition of angiotensin I.
The inhibitory activity of angiotensin I-converting enzyme was calculated by the following formula. [formula] A: contractile intensity of angiotensin I before addition of the compound B: contractile intensity of angiotensin I after addition of the compound

[3] = tested on: contractile response to bradykinin (isolated guinea pig ileum); test: Augmentation of contractile response of isolated guinea pig ileum to bradykinin; assay type: cell-based; conditions: bradykinin 0.005 μg/ml, compound added 5 min before, 30° C., read-out: Bradykinin AC50 (50% augmentation of bradykinin activity inducing the contraction of guinea pig ileum)
Method: as §2, §3
From the fact that kininase II, which destroys bradykinin having contractive action on isolated guinea pig ileum, is thought to be identical with angiotensin I-converting enzyme, augmentation of the contractile response to bradykinin by test compounds was examined by using bradykinin (0.005 μg/ml) in place of angiotensin I according to the above mentioned method.

[4] = tested on: pressor response to angiotensin I; test: Inhibition of pressor response to angiotensin I in rats after oral administration; assay type: in vivo, rat (male Wistar); conditions: angiotensin I 300 ng/kg i.v.; for Inhibition (%) of pressor response to angiotensin I, 5 min / Inhibition (%) of pressor response to angiotensin I, 15 min / Inhibition (%) of pressor response to angiotensin I, 25 min / Inhibition (%) of pressor response to angiotensin I, 35 min / Inhibition (%) of pressor response to angiotensin I, 45 min / Inhibition (%) of pressor response to angiotensin I, 55 min / Inhibition (%) of pressor response to angiotensin I, 65 min / Inhibition (%) of pressor response to angiotensin I, 75 min / Inhibition (%) of pressor response to angiotensin I, 85 min: dose: 3, 45, 49 1.8 mg/kg, 4, 46 1.3, 50 1.4, 76 2.0, 77 1.5; for Inhibition (%) of pressor response to angiotensin I, 95 min: dose: 45, 49 1.8 mg/kg, 4, 46 1.3, 50 1.4, 76 2.0, 77 1.5; for Inhibition (%) of pressor response to angiotensin I, 105 min / Inhibition (%) of pressor response to angiotensin I, 115 min: dose: 45, 49 1.8 mg/kg, 46 1.3, 50 1.4, 76 2.0, 77 1.5
Method: Male Wistar strain rats weighing about 200-300 g were used.
Under ether anesthesia, polyethylene cannulae are inserted into carotid arthery and jugular vein. The cannula to carotid artery is connected to an electric transducer, while the cannula to jugular vein is connected to an apparatus for continuous infusion. After the complete recovery from anesthesia, angiotensin I is infused intravenously in a dose of 300 ng/kg by the apparatus for continuous infusion, and the pressor response is recorded by polygraph (Nihon Koden, RM-150).
The compounds of this invention suspended in 0.5% tragacanth solution are administered orally in a dose of 0.3 ml per 100 g of body weight, and the pressor response to angiotensin I infused intravenously is measured with time.
The inhibitory activity of the compounds against angiotensin I-converting enzyme is expressed as the percent inhibition of pressor response to angiotensin I.

IC50 [1]: 340 nM
IC50 ([2]; Cavia porcellus): 240 nM
Compound: C[C@H](CS)C(=O)N1C(c2ccco2)SC[C@H]1C(=O)O (stereo partly drawn) [Compound 85]
AC50 ([3]; Cavia porcellus): 3.7 nM

IC50 [1]: 250 nM
IC50 ([2]; Cavia porcellus): 85 nM
Compound: C[C@H](CS)C(=O)N1C(CCS)SC[C@H]1C(=O)O (single isomer, unassigned) [Compound 8a]
AC50 ([3]; Cavia porcellus): 1.4 nM

IC50 [1]: 240 nM
IC50 ([2]; Cavia porcellus): 140 nM
Compound: C[C@H](CS)C(=O)N1C(c2ccc3c(c2)OCO3)SC[C@H]1C(=O)O (stereo partly drawn) [Compound 81]
AC50 ([3]; Cavia porcellus): 0.94 nM

IC50 [1]: 200 nM
IC50 ([2]; Cavia porcellus): 140 nM
Compound: COc1ccc(C2SC[C@@H](C(=O)O)N2C(=O)CCS)c(O)c1 (stereo partly drawn) [Compound 75]
AC50 ([3]; Cavia porcellus): 3.1 nM

IC50 [1]: 260 nM
IC50 ([2]; Cavia porcellus): 170 nM
Compound: C[C@H](CS)C(=O)N1CSC[C@H]1C(=O)O [Compound 96, reference compound]
AC50 ([3]; Cavia porcellus): 2.6 nM

IC50 [1]: 290 nM
IC50 [2]: 140 nM
Compound: C[C@H](CS)C(=O)N1C(CCS)SC[C@H]1C(=O)O (single isomer, unassigned) [Compound 8b]
AC50 [3]: 1.1 nM

IC50 [1]: 2200 nM
IC50 ([2]; Cavia porcellus): 560 nM
Compound: O=C(O)[C@@H]1CSC(c2ccccc2O)N1C(=O)CS (stereo partly drawn) [Compound 44]
AC50 ([3]; Cavia porcellus): 5 nM

IC50 [1]: 540 nM
IC50 ([2]; Cavia porcellus): 170 nM
Compound: Cc1ccc(C2SC[C@@H](C(=O)O)N2C(=O)[C@H](C)CS)cc1 (stereo partly drawn) [Compound 22]
AC50 ([3]; Cavia porcellus): 3.9 nM

IC50 [1]: 75 nM
IC50 ([2]; Cavia porcellus): 92 nM
Compound: C[C@H](CS)C(=O)N1C(c2cc(Cl)ccc2O)SC[C@H]1C(=O)O (stereo partly drawn) [Compound 60]
AC50 ([3]; Cavia porcellus): 2 nM

IC50 [1]: 650 nM
IC50 ([2]; Cavia porcellus): 410 nM
Compound: O=C(O)[C@@H]1CSC(CCS)N1C(=O)CCS (single isomer, unassigned) [Compound 6a]
AC50 [3]: 15 nM

IC50 [1]: 840 nM
IC50 ([2]; Cavia porcellus): 140 nM
Compound: C[C@H](CS)C(=O)N1C(c2cccnc2)SC[C@H]1C(=O)O (stereo partly drawn) [Compound 93]
AC50 ([3]; Cavia porcellus): 2.9 nM

Compound: O=C(SCCC(=O)N1C(c2ccccc2O)SC[C@H]1C(=O)O)c1ccccc1 (stereo partly drawn) [Compound 45, (4R)-3-(S-Benzoyl-3-mercaptopropanoyl)-2-(2-hydroxyphenyl)-4-thiazolidinecarboxylic acid]
Inhibition (%) of pressor response to angiotensin I, 5 min [4]: 20.0%
Inhibition (%) of pressor response to angiotensin I, 15 min [4]: 26.6%
Inhibition (%) of pressor response to angiotensin I, 25 min [4]: 30.1%
Inhibition (%) of pressor response to angiotensin I, 35 min [4]: 31.8%
Inhibition (%) of pressor response to angiotensin I, 45 min [4]: 20.9%
Inhibition (%) of pressor response to angiotensin I, 55 min [4]: 13.5%
Inhibition (%) of pressor response to angiotensin I, 65 min [4]: 19.0%
Inhibition (%) of pressor response to angiotensin I, 75 min [4]: 14.9%
Inhibition (%) of pressor response to angiotensin I, 85 min [4]: 20.9%
Inhibition (%) of pressor response to angiotensin I, 95 min [4]: 10.3%
Inhibition (%) of pressor response to angiotensin I, 105 min [4]: 10.3%
Inhibition (%) of pressor response to angiotensin I, 115 min [4]: 8.8%

Compound: COc1ccc(C2SC[C@@H](C(=O)O)N2C(=O)[C@H](C)CSC(=O)c2ccccc2)c(O)c1 (stereo partly drawn) [Compound 76]
Inhibition (%) of pressor response to angiotensin I, 5 min [4]: 26.0%
Inhibition (%) of pressor response to angiotensin I, 15 min [4]: 45.9%
Inhibition (%) of pressor response to angiotensin I, 25 min [4]: 56.1%
Inhibition (%) of pressor response to angiotensin I, 35 min [4]: 55.9%
Inhibition (%) of pressor response to angiotensin I, 45 min [4]: 58.2%
Inhibition (%) of pressor response to angiotensin I, 55 min [4]: 47.1%
Inhibition (%) of pressor response to angiotensin I, 65 min [4]: 48.9%
Inhibition (%) of pressor response to angiotensin I, 75 min [4]: 40.7%
Inhibition (%) of pressor response to angiotensin I, 85 min [4]: 41.7%
Inhibition (%) of pressor response to angiotensin I, 95 min [4]: 32.2%
Inhibition (%) of pressor response to angiotensin I, 105 min [4]: 30.6%
Inhibition (%) of pressor response to angiotensin I, 115 min [4]: 28.5%

Compound: C[C@H](CSC(=O)c1ccccc1)C(=O)N1C(C2CCCCC2)SC[C@H]1C(=O)O (stereo partly drawn) [Compound 3]
Inhibition (%) of pressor response to angiotensin I, 5 min [4]: 35.2%
Inhibition (%) of pressor response to angiotensin I, 15 min [4]: 40.8%
Inhibition (%) of pressor response to angiotensin I, 25 min [4]: 26.9%
Inhibition (%) of pressor response to angiotensin I, 35 min [4]: 17.9%
Inhibition (%) of pressor response to angiotensin I, 45 min [4]: 14.2%
Inhibition (%) of pressor response to angiotensin I, 55 min [4]: 14.8%
Inhibition (%) of pressor response to angiotensin I, 65 min [4]: 6.3%
Inhibition (%) of pressor response to angiotensin I, 75 min [4]: 9.5%
Inhibition (%) of pressor response to angiotensin I, 85 min [4]: 5.8%
